Results as given in article PMC7108845, “An Alphaherpesvirus Exploits Antimicrobial β-Defensins To Initiate Respiratory Tract Infection” (Journal of Virology, 2020).

Tests used:
EHV1 (isolate 03P37) = type: cell-based, equine herpesvirus type 1
[1] = tested on: equine influenza virus (A/equine/Kentucky/98, H3N8); type: cell-based
[2] = tested on: EHV1 particles binding to RK13 cells; type: cell-based, equine herpesvirus type 1
EIV = type: cell-based, equine influenza virus
[3] = tested on: Actinobacillus equuli subsp. equuli (4005); assay: MIC assay, bacterial growth inhibition; type: cell-based; settings: Gram-negative; Mueller-Hinton II broth, ~10^6 CFU/ml, 0 to 100 μg/ml eBD, 24 h, 37°C, 5% CO2; lowest concentration with no visible bacterial growth
Description: (§1) To ensure that eBD1, -2, and -3 are potent antimicrobial peptides, a MIC test was performed to determine inhibition of the growth of a number of Gram-positive and Gram-negative bacteria found in the equine respiratory tract by eBDs. The examined concentration range of eBDs ([…] to 100 μg/ml) was chosen based on the antimicrobially active concentration range of human BDs ([21][–][25]).
(§2) Clinical bacterial isolates were used in a MIC assay to investigate the sensitivity of bacterial pathogens from the equine respiratory tract to eBDs. The test organisms included the Gram-positive bacteria Streptococcus equi subsp. zooepidemicus (strain 4001), Streptococcus equi subsp. equi (strain 3830), Staphylococcus aureus (strain 3939), and Rhodococcus equi (strain 3851) and the Gram-negative bacteria Actinobacillus equuli subsp. equuli (strain 4005) and Bordetella bronchiseptica (strain 3033). All organisms were grown on Oxoid sheep blood agar plus plates (Thermo Fisher Scientific) overnight in a humidified incubator (5% CO2) at 37°C. Inocula were prepared by swabbing bacterial colonies from the plates, suspending them in PBS (turbidity equivalent to a 0.5 McFarland standard), and diluting this suspension 1:100 in Mueller-Hinton II (MH) broth (BD Biosciences, San Jose, CA, USA), achieving a final concentration of approximately 10^6 CFU/ml. eBDs were serially 2-fold diluted in MH broth at concentrations ranging from 200 μg/ml to 0.02 μg/ml and pipetted into 96-well microtiter plates (Greiner Bio, Kremsmünster, Austria). The inoculum was added to the eBD dilutions 1:1, and the bacteria were incubated in a humidified incubator (5% CO2) at 37°C for 24 h. MIC values were determined as the lowest concentration of eBD at which there was no visible bacterial growth.

[4] = tested on: Staphylococcus aureus (3939); assay: MIC assay, bacterial growth inhibition; type: cell-based; settings: Gram-positive; Mueller-Hinton II broth, ~10^6 CFU/ml, 0 to 100 μg/ml eBD, 24 h, 37°C, 5% CO2; lowest concentration with no visible bacterial growth
Description: as §1, §2

[5] = tested on: Bordetella bronchiseptica (3033); assay: MIC assay, bacterial growth inhibition; type: cell-based; settings: Gram-negative; Mueller-Hinton II broth, ~10^6 CFU/ml, 0 to 100 μg/ml eBD, 24 h, 37°C, 5% CO2; lowest concentration with no visible bacterial growth
Description: as §1, §2

[6] = tested on: Streptococcus equi subsp. zooepidemicus (4001); assay: MIC assay, bacterial growth inhibition; type: cell-based; settings: Gram-positive; Mueller-Hinton II broth, ~10^6 CFU/ml, 0 to 100 μg/ml eBD, 24 h, 37°C, 5% CO2; lowest concentration with no visible bacterial growth
Description: as §1, §2

Rhodococcus equi (3851) = assay: MIC assay, bacterial growth inhibition; type: cell-based; settings: Gram-positive; Mueller-Hinton II broth, ~10^6 CFU/ml, 0 to 100 μg/ml eBD, 24 h, 37°C, 5% CO2; lowest concentration with no visible bacterial growth
Description: as §1, §2

[7] = tested on: Streptococcus equi subsp. equi (3830); assay: MIC assay, bacterial growth inhibition; type: cell-based; settings: Gram-positive; Mueller-Hinton II broth, ~10^6 CFU/ml, 0 to 100 μg/ml eBD, 24 h, 37°C, 5% CO2; lowest concentration with no visible bacterial growth
Description: as §1, §2

[8] = tested on: equine arteritis virus (08P178); type: cell-based
EHV1 = type: cell-based, equine herpesvirus type 1
[9] = tested on: equine polymorphonuclear (PMN) cells; assay: CytoSelect cell migration (chemotaxis) assay; settings: 0 to 10 μg/ml; 96-well Boyden chamber, 5-μm pores; RFU; three donor horses
[10] = tested on: equine CD3+ T lymphocytes; assay: CytoSelect cell migration (chemotaxis) assay; settings: 0 to 10 μg/ml; 96-well Boyden chamber, 5-μm pores; RFU; three donor horses
[11] = tested on: EHV1 particles binding to EREC; type: cell-based, equine herpesvirus type 1
[12] = tested on: equine CD172a+ monocytic cells; assay: CytoSelect cell migration (chemotaxis) assay; settings: 0 to 10 μg/ml, 96-well Boyden chamber
EHV1 RacL11 Δgp2 = type: cell-based, equine herpesvirus type 1
EHV1 RacL11 = type: cell-based, equine herpesvirus type 1
EHV1 RacL11 ΔgM = type: cell-based, equine herpesvirus type 1

Molecule	formation of EIV plaques in MDCK cells [1]	protection of cells from subsequent EIV infection [1]	percentage of RK13 cells with bound EHV1 particles [2]	virus particles bound per positive RK13 cell, relative to eBD1 or control pretreatment [2]	EIV entry in EREC (EIV)	EIV infection of EREC (EIV)	EIV infectivity in EREC (EIV)	MIC [3] [mg/L]	MIC [4] [mg/L]	MIC [5] [mg/L]	MIC [6] [mg/L]	MIC (Rhodococcus equi (3851)) [mg/L]	MIC [7] [mg/L]	formation of EAV plaques in RK13 cells [8]	protection of cells from subsequent EAV infection [8]	EHV1 infection of EREC (EHV1)	concentration of maximal migration of equine T lymphocytes [10] [µg/mL]	number of EHV1 particles bound per EHV1-positive EREC [11]	percentage of EREC with bound EHV1 particles [11]	protection of cells from subsequent EHV1 infection (EHV1 (isolate 03P37))	further results
heparin [reference compound]	–	–	–	–	–	–	–	–	–	–	–	–	–	–	–	–	–	–	–	–	EHV1 final plaque diameter in RK13 cells (EHV1 (isolate 03P37)): did not alter; EHV1 plaque formation in RK13 cells (EHV1 (isolate 03P37)): inhibited
MRIHFLLFALLFLFLMPVPGNGGIINMLQKSYCKIRKGRCALLGCLPKEEQIGSCSVSGRKCCRKKK (also: bicyclic or more (positions not given here)) [eBD3, chemically synthesized equine β-defensin, named according to its human homolog]	decreased	failed to protect	1.26% ± 1.34%	up to 2 fold	no effect on EIV entry	diminishing subsequent infection of EREC	did not alter EIV infectivity	25	>100	100	>100	25	100	decreased	failed to protect	not able to infect EREC more efficiently	1	doubled	36% ± 8%	failed to protect	EIV infection of MDCK cells [1]: almost completely preventing infection; EIV infectivity [1]: decreased; EAV infectivity [8]: no effect; concentration of maximal migration of equine PMN cells [9]: 1 ng/mL; concentration of maximal migration of equine monocytic cells ([12]; 5-μm pores, RFU, three donor horses, P < 0.05): 1 µg/mL; EHV1 infectivity (EHV1 (isolate 03P37)): no effect; average EHV1 plaque diameter (EHV1 (isolate 03P37)): doubling; increase in EHV1 infection in RK13 cells (number of plaques and plaque diameter) (EHV1 (isolate 03P37)): 3.5 fold; increase in susceptibility of RK13 cells to EHV1 (number of plaques) (EHV1 (isolate 03P37)): 1.5 fold
Nc1nc(O)c2ncn(COC(CO)CO)c2n1 [ganciclovir, reference compound]	–	–	–	–	–	–	–	–	–	–	–	–	–	–	–	–	–	–	–	–	formation and spread of EHV1 plaques (EHV1 (isolate 03P37)): almost completely blocked
MRAPYFLLLTLCLFCCQMSSGVGYLTGLGHRSDHYICARSGGTCHFSSCPLFTKIEGTCYGGKAKCCL (also: bicyclic or more (positions not given here)) [eBD1, chemically synthesized equine β-defensin, named according to its human homolog]	–	failed to protect	0.78% ± 0.76%	–	no effect on EIV entry	–	did not alter EIV infectivity	>100	>100	>100	>100	>100	>100	–	failed to protect	–	1	did not significantly differ	17% ± 6%	failed to protect	concentration of maximal migration of equine PMN cells [9]: 1 ng/mL; chemotaxis of equine monocytic cells [12]: failed to induce
MRILHFLLAFLIVFLLPVPGFTAGIETSFSCSQNGGFCISPKCLPGSKQIGTCILPGSKCCRKK (also: bicyclic or more (positions not given here)) [eBD2, chemically synthesized equine β-defensin, named according to its human homolog]	decreased	failed to protect	0.86% ± 0.97%	up to 2 fold	no effect on EIV entry	diminishing subsequent infection of EREC	did not alter EIV infectivity	25	>100	100	>100	>100	>100	decreased	failed to protect	not able to infect EREC more efficiently	1	did not significantly differ	17% ± 5%	failed to protect	infectivity of RacL11 Δgp2 in RK13 cells (EHV1 RacL11 Δgp2): increase in infectivity; infectivity of parental RacL11 strain in RK13 cells (EHV1 RacL11): enhanced; infectivity of RacL11 ΔgM in RK13 cells (EHV1 RacL11 ΔgM): diminished; chemotaxis of equine monocytic cells [12]: failed to induce; average EHV1 plaque diameter (EHV1 (isolate 03P37)): doubling; increase in EHV1 infection in RK13 cells (number of plaques and plaque diameter) (EHV1 (isolate 03P37)): 3.5 fold
